# Experimental data published in patent US20240042065A1, “THERANOSTIC AGENTS” (priority 2022, published 2024).
# Assay: NMR relaxivity studies (R1 relaxivity)
# Type: physicochemical
# Details: Gd(III) complexes of DTPA analogues
# Description: The potential of L1 and L2 to be used in magnetic resonance imaging/Optical Imaging (MRI/OI) was evaluated by measuring their (a) thermodynamic stability by stability constants with potentiometric titrations; (b) R1 relaxivities by NMR relaxivity studies and (c) spectrophotometric (luminescence) investigations.
# The diagnostic moiety of the theranostic agent of the present invention enhances MR images when the patient is subjected to the magnetic field of the MR scanning machine by altering the T1 relaxation of local water protons. The paramagnetic relaxation of water protons arises as a result of dipole-dipole interactions between the proton nuclear spins and that of the oscillating magnetic field of MR machine caused by the interaction with the unpaired electron spins of paramagnetic metal ion in the complex, under pulse of radio frequency. The overall paramagnetic water proton relaxation rate enhancement (i.e. proton relaxivity) is governed by two factors, namely inner sphere and outer sphere contributions. […] This profile measures molecular dynamics taking place within the said complex understudy in a quantitative manner in the time scales of milliseconds to nanoseconds. […]
smiles,measurement,value
O=C(O)CN(CCN(CCN(CC(=O)O)CC(=O)O)CCN1C(=O)c2cccc3cccc(c23)C1=O)CC(=O)O [Type A],relaxivity (in words),high relaxivity
